Consider twelve compounds from patent US10781467B2, “3-epimerase and polynucleotide encoding same” (priority 2016, dated 2020).

Data set [1] has as its system 3-epimerase. Briefly: Metal dependence of 3-epimerase. In kind it is biochemical, Thermogemmatispora carboxidivorans. Conditions: 1 mM metal ion; for Relative activity (%): EDTA-treated 3-epimerase 0.04 U/mL, 10% (w/v) fructose, Tris pH 7.5, 60° C., 20 minutes, None = 100; for effect of metal ion on enzyme activity: fructose as substrate. How it is done: In the current experimental examples, the enzyme activity is measured using fructose and sorbose as substrates. […] The sodium phosphate buffer solution containing fructose or sorbose is prepared by dissolving fructose or sorbose in a sodium phosphate buffer solution pH 7-8 to give a concentration of 60-70% (w/v). The sodium phosphate buffer solution containing fructose or sorbose is continuously added to a bioreactor maintained at 60° C. For the purpose of facilitating the comparison of enzyme activities, one unit of allulose-3-epimerase is defined as an amount of allulose-3-epimerase required to produce […] of D-allulose per minute at pH 7.5 and 60° C.; and one unit of tagatose-3-epimerase is defined as an amount of tagatose-3-epimerase required to produce […] of D-tagatose per minute at pH 7.5 and 60° C. The concentrations of fructose, D-allulose, sorbose, and D-tagatose are determined by high performance liquid chromatography with a BP-100 calcium ion […] column and an RI detector. The column temperature is 80° C., and the mobile phase is ultrapure water with a flow rate of 0.5 mL/min. In Example 3, in order to investigate the effect of metal ions on the 3-epimerase, the effect on the activity of 3-epimerase was measured with fructose as a substrate in the presence of various metal ions. The measurement was carried out by treating 3-epimerase with EDTA, and then adding 1 mM of various metal ions shown in Table 1 below to the 3-epimerase solution. The reaction catalyzed by 3-epimerase was carried out in a 50 mM Tris buffer pH 7.5 at 60° C. for 20 minutes, where the Tris buffer contained 0.04 U/mL 3-epimerase and 10% (w/v) fructose. The reaction solution was further heated at 100° C. for 15 minutes to terminate the reaction, and then the activity of the 3-epimerase was measured.

Data set [2] relates to 3-epimerase. Kind of data set: Specificity of 3-epimerase for substrate. It is filed as biochemical, Thermogemmatispora carboxidivorans. Particulars: for 3-epimerase activity for substrate: 10 mM monosaccharide; for Relative activity (%): 0.04 U/ml 3-epimerase, 10 mM monosaccharide as substrate, pH 7.5, 60° C., 20 minutes. On the procedure:
In the current experimental examples, the enzyme activity is measured using fructose and sorbose as substrates. In order to measure the enzyme activity, 3-epimerase is mixed with 50 mM sodium phosphate buffer solution (pH 7.5) containing 10% fructose or sorbose, reacted at 60° C. for 20 minutes, and then heated at 100° C. for 15 minutes to terminate the reaction. The sodium phosphate buffer solution containing fructose or sorbose is prepared by dissolving fructose or sorbose in a sodium phosphate buffer solution pH 7-8 to give a concentration of 60-70% (w/v). The sodium phosphate buffer solution containing fructose or sorbose is continuously added to a bioreactor maintained at 60° C. For the purpose of facilitating the comparison of enzyme activities, one unit of allulose-3-epimerase is defined as an amount of allulose-3-epimerase required to produce […] of D-allulose per minute at pH 7.5 and 60° C.; and one unit of tagatose-3-epimerase is defined as an amount of tagatose-3-epimerase required to produce […] of D-tagatose per minute at pH 7.5 and 60° C. The concentrations of fructose, D-allulose, sorbose, and D-tagatose are determined by high performance liquid chromatography with a BP-100 calcium ion […] column and an RI detector. The column temperature is 80° C., and the mobile phase is ultrapure water with a flow rate of 0.5 mL/min.
The reaction catalyzed by 3-epimerase was carried out in a 50 mM sodium phosphate buffer solution pH 7.5 at 60° C. for 20 minutes, where the sodium phosphate buffer solution contained 0.04 U/ml 3-epimerase and 10 mM of various individual monosaccharides shown in Table 2 below. Each reaction solution was heated at 100° C. for 15 minutes to terminate the reaction, and then the enzyme activity of the 3-epimerase in each reaction solution was measured.

The conditions of data set [3]: in humans; cited from earlier work.

`[Ca+2]` [Ca^2+]: in the data set on 3-epimerase [1], the “Relative activity (%)” value stood at 65%. In the case of `[Co+2]` [Co^2+], in the data set with 3-epimerase [1], the “effect of metal ion on enzyme activity” value was “enhance the enzyme activity” and the “Relative activity (%)” value amounted to 170%. For `[Cu+2]` [Cu^2+], in the data set on 3-epimerase [1], the “effect of metal ion on enzyme activity” value was “inhibit the enzyme activity” and the “Relative activity (%)” value turned out to be 0%.

With `O=C(CO)[C@H](O)[C@H](O)[C@H](O)CO` [D-allulose, D-ribo-2-hexulose], in the data set on 3-epimerase [2], the “3-epimerase activity for substrate” value is recorded as “active” and the “Relative activity (%)” value is reported as 100%. As for `O=C(CO)[C@@H](O)[C@@H](O)[C@H](O)CO` [D-tagatose], in data set [3], the absorption rate is given as 20 to 25%. In the data set with 3-epimerase [2], the “3-epimerase activity for substrate” value was “active” and the “Relative activity (%)” value stood at 40.7%. Take `O=C(CO)[C@@H](O)[C@H](O)[C@H](O)CO` [Fructose, D-fructose]: in the data set with 3-epimerase [2], the “3-epimerase activity for substrate” value is “active” and the “Relative activity (%)” value was determined as 63.9%. As for `[K+]` [K^+], the “Relative activity (%)” value in the data set with 3-epimerase [1] was 113%.

As to `[Mg+2]` [Mg^2+], in the data set with 3-epimerase [1], the “effect of metal ion on enzyme activity” value is reported as “enhance the enzyme activity” and the “Relative activity (%)” value amounted to 130%.

On to `[Mn+2]` [Mn^2+], for which, in the data set on 3-epimerase [1], the “effect of metal ion on enzyme activity” value was “enhance the enzyme activity” and the “Relative activity (%)” value was 168%. On to `[Na+]` [Na^+], for which the “Relative activity (%)” value in the data set with 3-epimerase [1] amounted to 120%. As to `O=C(CO)[C@H](O)[C@@H](O)[C@H](O)CO` [Sorbose, D-sorbose], in the data set with 3-epimerase [2], the “3-epimerase activity for substrate” value was “active” and the “Relative activity (%)” value was 21%. `[Zn+2]` [Zn^2+]: in the data set with 3-epimerase [1], the “effect of metal ion on enzyme activity” value was “inhibit the enzyme activity” and the “Relative activity (%)” value turned out to be 0%.
